From patent publication US7667052B2 (Eisai R&D Management Co., Ltd., priority 2003, dated 2010)
Converted amounts (≈) assume the structure as drawn.

Columns and labels:
[1] = tested on: VEGF production in U251 human glioma cell; assay: VEGF production suppressing action under low oxygen, ELISA; format: cell-based; conditions: U251, low oxygen stimulation
Protocol: U251 human glioma cell cultured in DULBECCO-modified eagle medium (DMEM; manufactured by SIGMA Co., Ltd.) containing 10% fetal calf serum, penicillin (100 unit/ml) and streptomycin (100 μg/ml) was dispensed in 96-well plates by 4×10^4 cells/well. After culturing at 37° C. overnight in a CO2 incubator (5% CO2), the media were removed, and 180 μl of the above-mentioned incubation solution was charged. After adding 20 μL of the above-mentioned incubation solution containing the test compound diluted with 3-fold succession, they were incubated in a low oxygen (2% O2) incubator for 18 hours. The supernatants thereof were measured by an ELISA kit (Immunobiology Research Institute).
Concentration at which the amount of VEGF expressed by low oxygen stimulation was suppressed to 50% (IC50 value) was determined and results are shown in Table 9. […] The activities of 11107F and 11107G were very weak.

[2] = tested on: VEGF production in DU145 human colon cancer cell; assay: VEGF production suppressing action in various carcinoma cells, ELISA; format: cell-based; conditions: DU-145, low oxygen 18 hours
Protocol: (§1) WiDr human colon cancer cell, PC3 human prostate cancer cell, DU145 human […] cancer cell and HT1080 human […] cancer cell, which were cultured in DULBECCO-modified eagle medium (manufactured by DMEM SIGMA Co., Ltd.) containing 10% fetal calf serum, penicillin (100 unit/ml) and streptomycin (100 μg/ml) were dispensed in 96 well plates by 3×10^4 cells/well. After culturing at 37° C. overnight in a CO2 incubator (5% CO2), the media were removed, and 180 μl of the above-mentioned incubation solution was charged. After adding 20 μL of the above-mentioned incubation solution containing the test compound diluted with 3-fold succession, they were incubated in a low oxygen ([…]) incubator for 18 hours. The supernatants thereof were measured by an ELISA kit (Immunobiology Research Institute).
(§2) Concentration at which the amount of VEGF expressed by low oxygen stimulation was suppressed to 50% (IC50 value) was determined and results are shown in Table 10.

[3] = tested on: VEGF production in HT1080; assay: as above; format: cell-based; conditions: Homo sapiens; HT 1080, low oxygen 18 hours
Protocol: as §1, §2

[4] = tested on: VEGF production in PC3 human prostate cancer cell; assay: as above; format: cell-based; conditions: PC 3, low oxygen 18 hours
Protocol: as §1, §2

[5] = tested on: H460, U251, BSY-1, MDA-MB435, PC-3, DU145, OVCAR-3, WiDr and B16 melanoma cells; assay: Growth suppressing activity to various cancer cells, Alamar Blue; format: cell-based, human; mouse; conditions: 72 h; range over nine cancer cell lines, 3 days; read-out: growth suppressing activity IC50 values for the studied cell lines
Protocol: H460 human lung cancer cell, U251 human glioma cell, BSY-1 and MDA-MB435 human breast cancer cell, PC-3 and DU145 human prostate cancer cell, OVCAR-3 human ovarian cancer cell, WiDr human colon cancer cell and B16 melanoma mouse melanoma cell cultured in DMEM (manufactured by SIGMA Co., Ltd.) containing 10% fetal calf serum were dispensed in 96-well plates by 2×10^3 cells/180 μl, and they were cultured at 37° C. overnight in a CO2 incubator (5% CO2). Then, 20 μL of the above-mentioned incubation solution containing test compounds diluted with 2-fold succession was added, and they were further cultured in a CO2 incubator for 3 days.
20 μL of Alamar Blue reagent (Biosource Co.) was added to the cultured cells, and after 3 to 5 hours, fluorescence activity (ex 530 nm/em 590 nm) was measured by a micro plate reader (ARBO, Perkin-Elmer Co.). The cell growth of the control to which the compound is not added is set as 100%, the concentration at which it was suppressed by 50% was determined.

## CCC(O)C(C)C1OC1CC(C)/C=C/C=C(\C)C1OC(=O)CC(O)CCC(C)(O)C(OC(C)=O)/C=C/C1C (centres unmarked) [11107B]
[1]
  VEGF production suppression, in words: suppressed most strongly VEGF production
[2]
  IC50: 1.05 ng/mL (≈ 1.96 nM)
[3]
  IC50: 1.89 ng/mL (≈ 3.52 nM)
[4]
  IC50: 0.71 ng/mL (≈ 1.32 nM)
[5]
  IC50: 0.9 to 2.9 nM
